Results as given in paper PMC9614474 (Plant Physiology, 2022).

Target: T1, ChElp2 (Colletotrichum higginsianum, UniProt H1UVH3)
T1 construct: gene ELP2
Conditions: 25 °C

T1 sequence (H1UVH3 19-176): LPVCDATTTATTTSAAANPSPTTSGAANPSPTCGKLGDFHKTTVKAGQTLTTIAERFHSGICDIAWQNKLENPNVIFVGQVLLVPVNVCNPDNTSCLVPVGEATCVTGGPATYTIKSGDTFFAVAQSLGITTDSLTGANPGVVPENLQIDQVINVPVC

## CC(=O)N[C@H]1[C@H](O[C@H]2[C@H](O)[C@@H](NC(C)=O)[C@H](O[C@H]3[C@H](O)[C@@H](NC(C)=O)C(O)O[C@@H]3CO)O[C@@H]2CO)O[C@H](CO)[C@@H](O[C@@H]2O[C@H](CO)[C@@H](O[C@@H]3O[C@H](CO)[C@@H](O[C@@H]4O[C@H](CO)[C@@H](O)[C@H](O)[C@H]4NC(C)=O)[C@H](O)[C@H]3NC(C)=O)[C@H](O)[C@H]2NC(C)=O)[C@@H]1O (stereo partly shown) [Chi6, hexaacetylchitohexaose]
  Kd: 5.03 ± 0.241 µM
